The test system of the assay is P388 leukemia ip, CD2F1 mice, survival T/C. The experiment in a line: NCI In Vivo Anticancer Drug Screen. Data for tumor model P388 Leukemia (intraperitoneal) in CD2F1 (CDF1) mice. To be noted: endpoint: median survival time, higher = longer survival. A digest of the protocol:
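Mice carrying the transplanted tumor received test compound or vehicle. Survival was recorded in each group, and the value is the treated-group measurement divided by that of the vehicle-treated control group.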

Setting [1] is: dose: 50.0 mg/kg/injection, schedule: Q01DX009 (ip), vehicle: saline with Tween-80.
Setting [2] is: dose: 100.0 mg/kg/injection, schedule: Q01DX009 (ip), vehicle: saline with Tween-80.
The mark [3] stands for this setting: dose: 200.0 mg/kg/injection, schedule: Q01DX009 (ip), vehicle: saline with Tween-80.
The mark [4] stands for this setting: dose: 400.0 mg/kg/injection, schedule: Q01DX009 (ip), vehicle: saline with Tween-80.
[5] abbreviates: dose: 60.0 mg/kg/injection, schedule: Q01DX005 (ip), vehicle: saline with Tween-80.
Setting [6] is: dose: 120.0 mg/kg/injection, schedule: Q01DX005 (ip), vehicle: saline with Tween-80.
Where [7] appears, read: dose: 240.0 mg/kg/injection, schedule: Q01DX005 (ip), vehicle: saline with Tween-80.
[8] abbreviates: dose: 50.0 mg/kg/injection, schedule: Q01DX005 (ip), vehicle: saline with Tween-80.
Setting [9] is: dose: 100.0 mg/kg/injection, schedule: Q01DX005 (ip), vehicle: saline with Tween-80.
[10] abbreviates: dose: 60.0 mg/kg/injection, schedule: Q01DX005 (ip), vehicle: saline.
[11] abbreviates: dose: 120.0 mg/kg/injection, schedule: Q01DX005 (ip), vehicle: saline.
The mark [12] stands for this setting: dose: 240.0 mg/kg/injection, schedule: Q01DX005 (ip), vehicle: saline.
Where [13] appears, read: dose: 50.0 mg/kg/injection, schedule: Q01DX009 (ip), vehicle: saline.

Each structure is given as a SMILES string. Where “and” joins values, the source holds several entries; their conditions need not be identical. Equal values may be shown once. Toxic doses and inconclusive results are not listed. Peptide text beside a SMILES is read from it.

In the case of `N#Cc1ccccc1-n1c(=O)c2cc3c(=O)n(-c4ccccc4C#N)c(=O)c3cc2c1=O`, the T/C reads like this: (dose: 25.0 mg/kg/injection, schedule: Q01DX009 (ip), vehicle: saline with Tween-80) 100 % of control and 103 % of control; under setting [1], 95 % of control and 97 % of control; under setting [2], 100 % of control and 103 % of control; under setting [3], 102 % of control and 95 % of control; under setting [4], 100 % of control and 96 % of control.
In the case of `CC1OC(Nc2ncnc3nc[nH]c23)C(O)C(O)C1NC(=O)CNC(=O)CCCCCCCCCCCC(C)(C)C` (stereo not given), the T/C is, setting by setting: (dose: 0.25 mg/kg/injection, schedule: Q01DX009 (ip), vehicle: distilled water + Tween-80) 111 % of control and 117 % of control; (dose: 0.5 mg/kg/injection, schedule: Q01DX009 (ip), vehicle: distilled water + Tween-80) 118 % of control; (dose: 1.0 mg/kg/injection, schedule: Q01DX009 (ip), vehicle: distilled water + Tween-80) 166 % of control; (dose: 2.0 mg/kg/injection, schedule: Q01DX009 (ip), vehicle: distilled water + Tween-80) 117 % of control; (dose: 4.0 mg/kg/injection, schedule: Q01DX009 (ip), vehicle: distilled water + Tween-80) 108 % of control and 91 % of control.
With `CCCCP(=O)(CC(=O)O)c1ccccc1` (stereo not given), the T/C was 98 % of control under setting [5], 99 % of control under setting [6] and 102 % of control under setting [7].
`O=C(/C(=C(\C(=O)c1ccccc1)c1ccccc1)c1ccccc1)c1ccccc1`: the T/C is, setting by setting: under setting [1], 99 % of control; under setting [2], 92 % of control; under setting [3], 87 % of control; under setting [4], 86 % of control.
Consider `COc1ccc2c(c1)CCC1C2=CCC2C(=O)OC(=O)C21C` (stereo not given), for which the T/C is, setting by setting: under setting [8], 103 % of control; under setting [9], 108 % of control.
With `COC(=O)c1c(SC)c2sc3ccccc3c2oc1=O`, the T/C (dose: 6.25 mg/kg/injection, schedule: Q04DX002 (ip), vehicle: saline with Tween-80) is 100 % of control; the T/C (dose: 12.5 mg/kg/injection, schedule: Q04DX002 (ip), vehicle: saline with Tween-80) is 106 % of control; the T/C (dose: 25.0 mg/kg/injection, schedule: Q04DX002 (ip), vehicle: saline with Tween-80) was 99 % of control.
Consider `CCCC(NC(=O)C(C)Br)C(=O)O` (stereo not given), for which the T/C reads like this: (dose: 100.0 mg/kg/injection, schedule: Q04DX003 (ip), vehicle: saline with Tween-80) 95 % of control; (dose: 200.0 mg/kg/injection, schedule: Q04DX003 (ip), vehicle: saline with Tween-80) 100 % of control; (dose: 400.0 mg/kg/injection, schedule: Q04DX003 (ip), vehicle: saline with Tween-80) 100 % of control.
Regarding `O=C(C1=Cc2ccccc2OC1)N1CCN(c2ccccc2Cl)CC1`, the T/C reads like this: (dose: 100.0 mg/kg/injection, schedule: Q04DX003 (ip), vehicle: Klucel (hydroxypropylcellulose) (HPC)) 106 % of control; (dose: 200.0 mg/kg/injection, schedule: Q04DX003 (ip), vehicle: Klucel (hydroxypropylcellulose) (HPC)) 101 % of control; (dose: 400.0 mg/kg/injection, schedule: Q04DX003 (ip), vehicle: Klucel (hydroxypropylcellulose) (HPC)) 88 % of control.
Consider `CCCOc1ccc(-c2nc(-c3ccc([N+](=O)[O-])cc3)cs2)cc1`, for which the T/C runs as follows: (dose: 50.0 mg/kg/injection, schedule: Q01DX009 (ip), vehicle: Klucel (hydroxypropylcellulose) (HPC)) 113 % of control; (dose: 100.0 mg/kg/injection, schedule: Q01DX009 (ip), vehicle: Klucel (hydroxypropylcellulose) (HPC)) 104 % of control; (dose: 200.0 mg/kg/injection, schedule: Q01DX009 (ip), vehicle: Klucel (hydroxypropylcellulose) (HPC)) 104 % of control.
For `CCCNC1=C(C)C(=O)C2=C(C1=O)[C@H](COC(N)=O)[C@]1(OC)[C@@H]3N[C@@H]3CN21`, the T/C (dose: 6.25 mg/kg/injection, schedule: Q01DX009 (ip), vehicle: saline sonified) is 86 % of control and the T/C (dose: 12.5 mg/kg/injection, schedule: Q04DX003 (ip), vehicle: saline with Tween-80) was 86 % of control.
Take `CCC(C)C(NC(=O)C(N)CC(C)C)C(=O)O` (stereo not drawn) (H-Leu-Ile-OH; configuration not given here): the T/C is, setting by setting: under setting [10], 108 % of control; under setting [11], 108 % of control; under setting [12], 104 % of control.
`CC(C)SC(=S)Nc1ccc(Cl)c(C(F)(F)F)c1`: the T/C under setting [13] was 106 % of control; the T/C (dose: 100.0 mg/kg/injection, schedule: Q01DX009 (ip), vehicle: saline) is 105 % of control; the T/C (dose: 200.0 mg/kg/injection, schedule: Q01DX009 (ip), vehicle: saline) was 110 % of control.
`O=C(O)c1ccc(S(=O)(=O)F)c(Cl)c1`: the T/C under setting [5] was 120 % of control, the T/C under setting [6] is 119 % of control and the T/C under setting [7] is 121 % of control.
In the case of `Cc1c2cnccc2c(C)c2c1c1c(C)c3cnccc3c(C)c1n2C`, the T/C is 94 % of control (dose: 6.25 mg/kg/injection, schedule: Q04DX002 (ip), vehicle: distilled water + Tween-80); 97 % of control (dose: 12.5 mg/kg/injection, schedule: Q04DX002 (ip), vehicle: distilled water + Tween-80); 102 % of control (dose: 25.0 mg/kg/injection, schedule: Q04DX002 (ip), vehicle: distilled water + Tween-80); 108 % of control (dose: 50.0 mg/kg/injection, schedule: Q04DX002 (ip), vehicle: distilled water + Tween-80); 94 % of control (dose: 100.0 mg/kg/injection, schedule: Q04DX002 (ip), vehicle: distilled water + Tween-80).
Turning to `COc1ccc(S(=O)(=O)N/N=C/c2cnc[nH]2)cc1`, the T/C reads like this: (dose: 12.5 mg/kg/injection, schedule: Q01DX005 (ip), vehicle: Klucel (hydroxypropylcellulose) (HPC)) 100 % of control; (dose: 25.0 mg/kg/injection, schedule: Q01DX005 (ip), vehicle: Klucel (hydroxypropylcellulose) (HPC)) 97 % of control; (dose: 50.0 mg/kg/injection, schedule: Q01DX005 (ip), vehicle: Klucel (hydroxypropylcellulose) (HPC)) 97 % of control; (dose: 100.0 mg/kg/injection, schedule: Q01DX005 (ip), vehicle: Klucel (hydroxypropylcellulose) (HPC)) 88 % of control; (dose: 200.0 mg/kg/injection, schedule: Q01DX005 (ip), vehicle: Klucel (hydroxypropylcellulose) (HPC)) 90 % of control and 94 % of control; (dose: 400.0 mg/kg/injection, schedule: Q01DX005 (ip), vehicle: Klucel (hydroxypropylcellulose) (HPC)) 117 % of control.
In the case of `CSCCC(N)C(=O)NCCS(=O)(=O)O` (stereo not given), the T/C is 105 % of control under setting [10], 109 % of control under setting [11] and 102 % of control under setting [12].
With `S=C1NCN(CC2CC2)CN1`, the T/C reads like this: under setting [5], 97 % of control; under setting [6], 96 % of control; under setting [7], 94 % of control.
`C[Si](C)(C)C#CCO`: the T/C is, setting by setting: under setting [8], 101 % of control; under setting [9], 100 % of control; (dose: 200.0 mg/kg/injection, schedule: Q01DX005 (ip), vehicle: saline with Tween-80) 105 % of control.
`COC(=N)C1=CC(C)(C)N(O)C1(C)C`: the T/C is 96 % of control (dose: 100.0 mg/kg/injection, schedule: Q01DX001 (ip), vehicle: saline); 102 % of control (dose: 200.0 mg/kg/injection, schedule: Q01DX001 (ip), vehicle: saline); 98 % of control (dose: 400.0 mg/kg/injection, schedule: Q01DX001 (ip), vehicle: saline).
On to `CCN(CC)CC(C)C1NS(=O)(=O)c2ccccc21` (stereo not given), for which the T/C runs as follows: (dose: 1.56 mg/kg/injection, schedule: Q01DX009 (ip), vehicle: saline) 107 % of control; (dose: 3.12 mg/kg/injection, schedule: Q01DX009 (ip), vehicle: saline) 98 % of control; (dose: 6.25 mg/kg/injection, schedule: Q01DX009 (ip), vehicle: saline) 100 % of control; (dose: 25.0 mg/kg/injection, schedule: Q01DX009 (ip), vehicle: saline) 88 % of control; under setting [1], 86 % of control; under setting [13], 87 % of control.
Turning to `CSC(=S)S(=O)(=O)C12CC3CC(CC(C3)C1)C2`, the T/C by setting is: (dose: 6.25 mg/kg/injection, schedule: Q01DX009 (ip), vehicle: Klucel (hydroxypropylcellulose) (HPC)) 111 % of control; (dose: 25.0 mg/kg/injection, schedule: Q01DX009 (ip), vehicle: Klucel (hydroxypropylcellulose) (HPC)) 113 % of control and 114 % of control.
As for `O=C(c1ccco1)C(O)NC(=S)c1ccc(Cl)cc1` (stereo not given), the T/C is, setting by setting: under setting [1], 113 % of control and 117 % of control; under setting [2], 116 % of control.

(Values after PubChem BioAssay AID330 (DTP/NCI, 2004).)
